This test addresses T1, b-Raf (Homo sapiens, UniProt P15056, V600E).
T1 construct: endogenous in cells; host or cells: A2058 human melanoma cells
Kind of test: Raf cellular assay (phospho-Mek1/2 ELISA in A2058 cells). As to conditions: Table 3; human melanoma A2058 cells (b-Raf mutation), Mek1/2 Ser217/221 phosphorylation, 1 hour incubation; read-out: pMEK IC50. The format is cell-based. The essentials:
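A2058 melanoma cells (B-Raf mutant), seeded overnight in 10% FBS DMEM, were exposed to compounds (11-point 1:3 series, duplicate) for 1 h at 37 °C. Lysates were captured on anti-Mek1-coated plates and Mek1/2 Ser217/221 phosphorylation was read by anti-phospho-Mek1/2 ELISA, HRP/TMB, 450 nm.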

T1 sequence (P15056 whole entry V600E): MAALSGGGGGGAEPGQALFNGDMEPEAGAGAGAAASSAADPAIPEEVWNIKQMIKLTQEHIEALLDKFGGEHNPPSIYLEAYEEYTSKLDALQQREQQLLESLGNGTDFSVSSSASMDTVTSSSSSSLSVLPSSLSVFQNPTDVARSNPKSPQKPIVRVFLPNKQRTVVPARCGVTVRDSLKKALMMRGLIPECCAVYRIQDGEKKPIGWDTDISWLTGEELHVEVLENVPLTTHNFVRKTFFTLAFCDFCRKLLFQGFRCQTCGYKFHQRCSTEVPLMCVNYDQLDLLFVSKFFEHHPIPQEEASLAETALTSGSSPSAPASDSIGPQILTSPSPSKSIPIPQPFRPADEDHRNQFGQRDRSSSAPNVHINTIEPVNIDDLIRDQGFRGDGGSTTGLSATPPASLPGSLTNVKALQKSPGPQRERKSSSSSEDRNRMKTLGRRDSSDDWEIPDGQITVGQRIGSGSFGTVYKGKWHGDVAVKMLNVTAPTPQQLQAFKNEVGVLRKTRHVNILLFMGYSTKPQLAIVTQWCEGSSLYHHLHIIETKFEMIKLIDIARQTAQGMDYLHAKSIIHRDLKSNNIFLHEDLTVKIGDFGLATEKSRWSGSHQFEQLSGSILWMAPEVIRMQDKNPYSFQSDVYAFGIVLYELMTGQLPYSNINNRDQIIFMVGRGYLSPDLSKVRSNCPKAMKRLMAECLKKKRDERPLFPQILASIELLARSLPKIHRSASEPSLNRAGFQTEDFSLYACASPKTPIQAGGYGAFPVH

As for `CC(=O)Nc1cc(C)c(-c2nn(CC(F)F)cc2-c2ccnc(NCCC#N)n2)cn1` [Example B-26, N-{5-[4-{2-[(2-cyanoethyl)amino]pyrimidin-4-yl}-1-(2,2-difluoroethyl)-1H-pyrazol-3-yl]-4-methylpyridin-2-yl}acetamide], the IC50 amounted to 2.2 µM.
Turning to `CCn1cc(-c2ccnc(NC[C@H](C)O)n2)c(-c2cnc3[nH]cc(Cl)c3c2)n1` [Example B-61, (2S)-1-({4-[3-(3-chloro-1H-pyrrolo[2,3-b]pyridin-5-yl)-1-ethyl-1H-pyrazol-4-yl]pyrimidin-2-yl}amino)propan-2-ol], the IC50 was 0.0673 µM.
In the case of `CN1CCC(n2cc(-c3ccnc(NCC(F)F)n3)c(-c3cnc4[nH]cc(Cl)c4c3)n2)CC1` [Example B-114, 4-[3-(3-chloro-1H-pyrrolo[2,3-b]pyridin-5-yl)-1-(1-methylpiperidin-4-yl)-1H-pyrazol-4-yl]-N-(2,2-difluoroethyl)pyrimidin-2-amine], the 50% inhibitory concentration (IC50) came out at 0.00222 µM.
For the compound `Cc1c[nH]c2ncc(-c3nn(C(C)(C)CO)cc3-c3ccnc(NCCC#N)n3)cc12` [Example B-23, 3-({4-[1-(2-hydroxy-1,1-dimethylethyl)-3-(3-methyl-1H-pyrrolo[2,3-b]pyridin-5-yl)-1H-pyrazol-4-yl]pyrimidin-2-yl}amino)propanenitrile], the IC50 came to 0.000428 µM.
Regarding `COc1cc(-c2nn(C3CCOCC3)cc2-c2ccnc(NCCC#N)n2)cnc1N` [Example B-69, 3-({4-[3-(6-amino-5-methoxypyridin-3-yl)-1-(tetrahydro-2H-pyran-4-yl)-1H-pyrazol-4-yl]pyrimidin-2-yl}amino)propanenitrile], the IC50 amounted to 0.00298 µM.
As for `C[C@H](O)CNc1nccc(-c2cn(C3CCOCC3)nc2-c2cnc3[nH]cc(Cl)c3c2)n1` [Example B-76, (2S)-1-({4-[3-(3-chloro-1H-pyrrolo[2,3-b]pyridin-5-yl)-1-(tetrahydro-2H-pyran-4-yl)-1H-pyrazol-4-yl]pyrimidin-2-yl}amino)propan-2-ol], the concentration for half-maximal inhibition (IC50) stood at 0.012 µM.
On to `Cc1c[nH]c2ncc(-c3nn(C(C)(C)CO)cc3-c3ccnc(N)n3)cc12` [Example B-58, 2-[4-(2-aminopyrimidin-4-yl)-3-(3-methyl-1H-pyrrolo[2,3-b]pyridin-5-yl)-1H-pyrazol-1-yl]-2-methylpropan-1-ol], for which the IC50 was 0.00986 µM.
With `FC(F)CNc1nccc(-c2cn(C3CCNCC3)nc2-c2cnc3[nH]cc(Cl)c3c2)n1` [Example B-77, 4-[3-(3-chloro-1H-pyrrolo[2,3-b]pyridin-5-yl)-1-piperidin-4-yl-1H-pyrazol-4-yl]-N-(2,2-difluoroethyl)pyrimidin-2-amine] the figure was 0.0304 µM.
The value for `C[C@H](O)CNc1nccc(-c2cn(CC(F)F)nc2-c2cnc3c(c2)[C@@H](C)CN3)n1` [Example B-92, (S)-1-(4-(1-(2,2-difluoroethyl)-3-((R)-3-methyl-2,3-dihydro-1H-pyrrolo[2,3-b]pyridin-5-yl)-1H-pyrazol-4-yl)pyrimidin-2-ylamino)propan-2-ol] was 0.28 µM; that for `COc1cc(-c2nn(CC(F)F)cc2-c2ccnc(NC[C@H](C)O)n2)cnc1N` [Example B-104, (2S)-({4-[3-(6-amino-5-methoxypyridin-3-yl)-1-(2,2-difluoroethyl)-1H-pyrazol-4-yl]pyrimidin-2-yl}amino)propan-2-ol] was 0.00962 µM.
The value for `CC(C)n1cc(-c2ccnc(N)n2)c(-c2cnc3[nH]cc(Cl)c3c2)n1` [Example B-60, 4-[3-(3-chloro-1H-pyrrolo[2,3-b]pyridin-5-yl)-1-isopropyl-1H-pyrazol-4-yl]pyrimidin-2-amine] was 0.044 µM; that for `Cc1n[nH]c2ncc(-c3nn(CC(F)F)cc3-c3ccnc(NCC(F)F)n3)cc12` [Example G-3, N-(2,2-difluoroethyl)-4-[1-(2,2-difluoroethyl)-3-(3-methyl-1H-pyrazolo[3,4-b]pyridin-5-yl)-1H-pyrazol-4-yl]pyrimidin-2-amine] was 0.0229 µM; that for `CC(C)(O)CNc1nccc(-c2cn(CC(F)F)nc2-c2cnc3c(c2)CCN3)n1` [Example B-89, 1-(4-(1-(2,2-difluoroethyl)-3-(2,3-dihydro-1H-pyrrolo[2,3-b]pyridin-5-yl)-1H-pyrazol-4-yl)pyrimidin-2-ylamino)-2-methylpropan-2-ol] was 0.284 µM.
For the compound `Cc1c[nH]c2ncc(-c3nn(CC(F)F)cc3-c3ccnc(NCCO)n3)cc12` [Example B-105, 2-({4-[1-(2,2-difluoroethyl)-3-(3-methyl-1H-pyrrolo[2,3-b]pyridin-5-yl)-1H-pyrazol-4-yl]pyrimidin-2-yl}amino)ethanol], the IC50 was 0.00946 µM.
For `CC(C)(C)n1cc(-c2ccnc(NCCC#N)n2)c(-c2cnc3[nH]ccc3c2)n1` [Example B-74, 3-({4-[1-tert-butyl-3-(1H-pyrrolo[2,3-b]pyridin-5-yl)-1H-pyrazol-4-yl]pyrimidin-2-yl}amino)-propanenitrile], the IC50 was 0.00533 µM.
With `Cc1n[nH]c2ncc(-c3nn(CC(F)F)cc3-c3ccnc(NC4CCOC4)n3)cc12` (stereo not shown) [Example G-4, 4-[1-(2,2-difluoroethyl)-3-(3-methyl-1H-pyrazolo[3,4-b]pyridin-5-yl)-1H-pyrazol-4-yl]-N-(tetrahydrofuran-3-yl)pyrimidin-2-amine], the IC50 was determined as 0.774 µM.
For the compound `C[C@H](O)CNc1nccc(-c2cn(CC(F)F)nc2-c2cnc3[nH]cc(C#N)c3c2)n1` [Example B-103, 5-[1-(2,2-difluoroethyl)-4-(2-{[(2S)-2-hydroxypropyl]amino}pyrimidin-4-yl)-1H-pyrazol-3-yl]-1H-pyrrolo[2,3-b]pyridine-3-carbonitrile], the IC50 was 3.8 µM.
With `Cc1c[nH]c2ncc(-c3nn(CC(F)F)cc3-c3ccnc(NC[C@H](C)O)n3)cc12` [Example B-100, (2S)-1-({4-[1-(2,2-difluoroethyl)-3-(3-methyl-1H-pyrrolo[2,3-b]pyridin-5-yl)-1H-pyrazol-4-yl]pyrimidin-2-yl}amino)propan-2-ol] the figure was 0.00429 µM; with `CC(C)n1cc(-c2ccnc(N)c2)c(-c2cnc3[nH]cc(Cl)c3c2)n1` [Example H-1, 4-(3-(3-chloro-1H-pyrrolo[2,3-b]pyridin-5-yl)-1-isopropyl-1H-pyrazol-4-yl)pyridin-2-amine], 0.026 µM; with `N#CCCNc1nccc(-c2cn(CC(F)F)nc2-c2cnc3c(ccn3CCC#N)c2)n1` [Example D-15], 0.107 µM.
With `C[C@H](O)CNc1nccc(-c2cn(C(C)(C)C#N)nc2-c2cnc3[nH]cc(Cl)c3c2)n1` [Example B-34, 2-[3-(3-chloro-1H-pyrrolo[2,3-b]pyridin-5-yl)-4-(2-{[(2S)-2-hydroxypropyl]amino}pyrimidin-4-yl)-1H-pyrazol-1-yl]-2-methylpropanenitrile] the figure was 0.0295 µM; with `COc1cc(-c2nn(C(C)(C)C)cc2-c2ccncn2)cnc1N` [Example F-3, 5-(1-tert-butyl-4-pyrimidin-4-yl-1H-pyrazol-3-yl)-3-methoxypyridin-2-amine], 0.0554 µM.
The value for `CC(C)n1cc(-c2ccnc(NCCC#N)n2)c(-c2cnc3[nH]cc(F)c3c2)n1` [Example B-19, 3-({4-[3-(3-fluoro-1H-pyrrolo[2,3-b]pyridin-5-yl)-1-isopropyl-1H-pyrazol-4-yl]pyrimidin-2-yl}amino)propanenitrile] was 0.00271 µM; that for `Cc1n[nH]c2ncc(-c3nn(C(C)(C)CO)cc3-c3ccnc(NCCC#N)n3)cc12` [Example B-94, 3-(4-(1-(1-hydroxy-2-methylpropan-2-yl)-3-(3-methyl-1H-pyrazolo[3,4-b]pyridin-5-yl)-1H-pyrazol-4-yl)pyrimidin-2-ylamino)propanenitrile] was 0.0133 µM.
With `Cc1[nH]c2ncc(-c3nn(C(C)C)cc3-c3ccnc(NC[C@H](C)O)n3)cc2c1Cl` [Example B-97, (2S)-1-({4-[3-(3-chloro-2-methyl-1H-pyrrolo[2,3-b]pyridin-5-yl)-1-isopropyl-1H-pyrazol-4-yl]pyrimidin-2-yl}amino)propan-2-ol], the 50% inhibitory concentration (IC50) is 0.174 µM.
Consider `N#CCCNc1nccc(-c2cn(CC(F)F)nc2-c2cnc3c(c2)CC(=O)N3)n1` [Example B-95, 3-(4-(1-(2,2-difluoroethyl)-3-(2-oxo-2,3-dihydro-1H-pyrrolo[2,3-b]pyridin-5-yl)-1H-pyrazol-4-yl)-pyrimidin-2-ylamino)propanenitrile], for which the IC50 stood at 1.67 µM.
As for `CC(C)n1cc(-c2ccnc(NCCC#N)n2)c(-c2cccnc2)n1` [Example B-53, 3-{[4-(1-isopropyl-3-pyridin-3-yl-1H-pyrazol-4-yl)pyrimidin-2-yl]amino}-propanenitrile], the IC50 was 1.32 µM.
For the compound `COCCCn1cc(-c2ccnc(NC[C@H](C)O)n2)c(-c2cnc3[nH]cc(Cl)c3c2)n1` [Example B-110, (2S)-1-({4-[3-(3-chloro-1H-pyrrolo[2,3-b]pyridin-5-yl)-1-(3-methoxypropyl)-1H-pyrazol-4-yl]pyrimidin-2-yl}amino)propan-2-ol], the IC50 amounted to 0.144 µM.
With `C[C@H](O)CNc1nccc(-c2cn(CC(F)F)nc2-c2cnc3[nH]cc(Cl)c3c2)n1` [Example B-96, (2S)-1-({4-[3-(3-chloro-1H-pyrrolo[2,3-b]pyridin-5-yl)-1-(2,2-difluoroethyl)-1H-pyrazol-4-yl]pyrimidin-2-yl}amino)propan-2-ol] the figure was 0.0141 µM; with `COc1cc(-c2n[nH]cc2-c2ccnc(NCC(F)F)n2)cnc1N` [Example B-68, 4-[3-(6-amino-5-methoxypyridin-3-yl)-1H-pyrazol-4-yl]-N-(2,2-difluoroethyl)-pyrimidin-2-amine], 0.0256 µM; with `C[C@H](CO)n1cc(-c2ccnc(N)n2)c(-c2cnc3[nH]cc(Cl)c3c2)n1` [Example B-55, (2R)-2-[4-(2-aminopyrimidin-4-yl)-3-(3-chloro-1H-pyrrolo[2,3-b]pyridin-5-yl)-1H-pyrazol-1-yl]propan-1-ol], 0.0636 µM.

The values above are taken from patent US7772246B2 (Pfizer Inc., priority 2007, dated 2010).
